Measured values from patent US20230270871A1, “MARKERS FOR USE IN METHODS FOR TREATING CANCERS WITH ANTIBODY DRUG CONJUGATES (ADC)” (AGENSYS, INC., priority 2020, published 2023).
Where a SMILES comes first, the peptide text is derived from it. [ ]: non-standard residue; d: D form. The star is where a group is joined. Dolaproine = CO[C@@H]([C@@H]1CCCN1)[C@@H](C)C(=O)O; Dil = CC[C@H](C)[C@H](NC)[C@@H](CC(=O)O)OC; X1 = C[C@@H](N*)[C@@H](O)c1ccccc1; NMeV = CN[C@H](C(=O)O)C(C)C

Key:
phospho-JNK [1] = experiment: ER stress, phospho-JNK activation; type: cell-based
T-24-Nectin-4 cells = experiment: ICD cell surface markers (calreticulin, HSP70); type: cell-based, human; settings: anti-nectin-4 ADC 1 ug/mL, MMAE 100 nM, compared with untreated or control hIgG-MMAE (1 mg/mL)
Source text: FIG. 4A is a cartoon representation of the release of ATP and HMGB1 by cells treated with an anti-nectin-4 ADC and the effects of the released ATP and HMGB1 on macrophages. FIG. 4B is a cartoon representation of the release of ATP and HMGB1 by cells treated with an anti-nectin-4 ADC, the activation of the immune cells by the ATP and HMGB1, and the potential immunogenic cell death or immunogenic cell killing by the activated immune cells. FIG. 4C depicts ATP release in control T-24 cells and T-24 cells expressing nectin-4 after various treatments as indicated. FIG. 4D depicts ATP release in control UM-UC-3 cells and UM-UC-3 cells expressing nectin-4 after various treatments as indicated. FIG. 4E depicts HMGB1 release in control T-24 cells and T-24 cells expressing nectin-4 after various treatments as indicated. FIGS. 4F and 4G depict cell surface calreticulin (4F) and HSP70 (4G), respectively, in cells upon various treatments as indicated. Increase in ICD cell surface markers such as calreticulin or HSP70 can be detected on T-24-Nectin-4 cells upon treatment with an anti-nectin-4 ADC (1 ug/mL) or MMAE (100 nM) compared with untreated or treatment with the control hIgG-MMAE (1 mg/mL). In FIGS. 4C to 4G, EV and AGS-22C3E indicate the same anti-nectin-4 ADC.

phospho-JNK [2] = experiment: Phospho-JNK western blot; type: cell-based; settings: FIG. 9C
Procedure: T-24 Nectin-4 (clone1A9) cells were treated with an anti-nectin-4 ADC (AGS-22C3E) for 48 hours and stained with β-tubulin for microtubules and DAPI, a nuclear DNA stain. FIGS. 9B and 9C depict activation of phospho-INK in response to the treatment with an anti-nectin-4 ADC (AGS-22C3E). In FIG. 9B, western blots show an increase in phospho-JNK over a period of 48 hours upon treatment with an anti-nectin-4 ADC (AGS-22C3E) at 1 ug/mL). In FIG. 9C, Phosphorylation of JNK is observed in treatment with an anti-nectin-4 ADC (AGS-22C3E) and MMAE but absent in untreated or non-binding ADC control.

[3] = tested on: acute myeloid leukemia (AML) at relapse; settings: administered alone; cited from earlier work
human Nectin-4 = target: T1, human Nectin-4 (human, UniProt Q96NY8 32-510); experiment: cell-based or functional assay
T1 sequence: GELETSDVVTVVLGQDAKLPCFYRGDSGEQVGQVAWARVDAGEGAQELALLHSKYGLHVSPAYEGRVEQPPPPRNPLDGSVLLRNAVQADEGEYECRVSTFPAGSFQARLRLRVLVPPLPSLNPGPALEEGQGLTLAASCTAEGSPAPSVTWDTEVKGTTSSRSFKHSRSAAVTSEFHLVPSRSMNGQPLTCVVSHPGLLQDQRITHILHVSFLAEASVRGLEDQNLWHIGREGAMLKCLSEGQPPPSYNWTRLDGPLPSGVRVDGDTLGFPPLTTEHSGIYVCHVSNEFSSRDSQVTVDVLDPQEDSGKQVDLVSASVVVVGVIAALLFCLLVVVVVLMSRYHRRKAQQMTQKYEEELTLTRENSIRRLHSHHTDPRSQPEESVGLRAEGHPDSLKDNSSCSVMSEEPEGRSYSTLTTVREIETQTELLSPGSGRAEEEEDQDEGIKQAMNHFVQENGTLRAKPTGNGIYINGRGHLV

## CC[C@H](C)[C@@H]([C@@H](CC(=O)N1CCC[C@H]1[C@H](OC)[C@@H](C)C(=O)N[C@H](C)[C@@H](O)c1ccccc1)OC)N(C)C(=O)[C@@H](NC(=O)[C@@H](NC)C(C)C)C(C)C [MMAE, monomethyl auristatin E] (H-[NMeV]V[Dil][Dolaproine]-X1)
phospho-JNK [1]
  phospho-JNK activation: activates phospho-JNK
T-24-Nectin-4 cells; FIG. 4F
  cell surface calreticulin (ICD marker): Increase
T-24-Nectin-4 cells; FIG. 4G
  cell surface HSP70 (ICD marker): Increase
phospho-JNK [2]
  phosphorylation of JNK: observed

## CT-011: anti-PD-1 antibody, a humanized antibody
[3]
  response in AML at relapse: failed to show response

B1: enfortumab vedotin (antibody, human IgG1, kappa, V domains shown)
VH: EVQLVESGGGLVQPGGSLRLSCAASGFTFSSYNMNWVRQAPGKGLEWVSYISSSSSTIYYADSVKGRFTISRDNAKNSLSLQMNSLRDEDTAVYYCARAYYYGMDVWGQGTTVTVSS
VL: DIQMTQSPSSVSASVGDRVTITCRASQGISGWLAWYQQKPGKAPKFLIYAASTLQSGVPSRFSGSGSGTDFTLTISSLQPEDFATYYCQQANSFPPTFGGGTKVEIKR
modifications: MMAE conjugated via a protease-cleavable maleimidocaproyl valine-citrulline (vc) linker on cysteine residues that comprise the interchain disulfide bonds; drug-to-antibody ratio approximately 3.8:1
Human Nectin-4
  Enfortumab vedotin Cytotoxicity IC50 (T-24 Nectin-4 Clone 1A9 cells; cell viability by CELL TITER-GLO 120 hours post-treatment): 0.085 mg/L
  Enfortumab vedotin Cytotoxicity IC50 (UM-UC-3 Nectin-4 Clone 1D11 cells; cell viability by CELL TITER-GLO 120 hours post-treatment): 0.006 mg/L
